Values belong to the compound of their own block, whether it stands above or below them.
Assays:
[1] = target: T1, thalidomide-binding domain of CRBN (CULT) (Homo sapiens, UniProt Q96SW2); assay: Photoaffinity labeling binding site mapping with i-pLen probes by LC-MS/MS; conditions: equimolar mixture of i-pLen probes, photolysis after 30 min at 24 °C
T1 construct: made in house
Method: (§1) (v21.1.1) and Adobe Illustrator (v24.1).
(§2) MM.1S, MOLM13, Jurkat, and BxPC3 […]
(§3) μg/mL), and 10% (v/v) FBS.
(§4) Western Blotting Procedures […]
(§5) lysates and the concentration was adjusted using lysis buffer. 5× SDS-PAGE loading buffer […]
(§6) Protein samples (8–15 μL per lane) were […]
(§7) precast gels for medium molecular weight proteins. Gels were transferred to membranes using […]
(§8) for high molecular weight proteins. Membranes were stained with Ponceau S solution to visualize transfer and protein loading.
(§9) Degradation assay by flow cytometry […]
(§10) resuspension in DMEM +/– without phenol red. For IKZF1 degradation assay, propidium […]
(§11) equipped with a high throughput sampler. […]
(§12) using the BD FACSDiva software v9.1. For each experimental condition, the arithmetic mean […]
(§13) comparing compound treatment to DMSO control.
(§14) Structural proteomics mass spectrometry sample preparation […]
addition of a pre-mixed cocktail (final concentrations: 100 μM cleavable biotin picolyl-azide probe, 250 μM THPTA, 250 μM CuSO4, 2.5 mM freshly dissolved sodium ascorbate) and incubated for 1.5 h at 25 °C with inversion. After excess reagent was removed by acetone precipitation, the protein pellet was resuspended in 100 mM TEAB (50 μL, pH=8.5) and 100 mM DTT/PBS (1.5 μL, final concentration 3 mM) was added before incubating for 30 min at 25 °C with inversion. […]
The raw data were analyzed using Proteome Discoverer 2.4.1.15. […]

[2] = target: T2, BRD4(BD1)-GFP in HEK293T cells (Homo sapiens, UniProt O60885+Q96SW2); assay: Degradation assay by flow cytometry, BRD4(BD1)-GFP; format: cell-based; conditions: 76 pM–20 μM, 4 h
T2 construct: HEK293T cells stably expressing BRD4(BD1) fused to GFP
Method: as §1, §2, §3, §4, §5, §6, §7, §8, §9, §10, §11, §12, §13, §14
sample throughout the assay duration. The same analysis was also applied to the (S)- […]
dependent activity, we adjusted the dose-response curves accordingly. Because dose- […]
within the error margins of the original curve. […]
squares F-test. This analysis determined whether there was a statistically significant […]
derived (S)-enantiomer. If there is a statistically significant difference, the null […]
Cells were treated with 1 μM MLN4924
The cells were collected and lysed in […]
centrifugation (21,000 × g, 4 °C, 10 min). […]

MOLM13 cells = assay: Global quantitative proteomics of protein levels; format: cell-based; conditions: 4 h; for FC [fold change abundances (R/DMSO)] / logFC (R vs DMSO) / FC [fold change abundances (rac/DMSO)] / logFC (rac vs DMSO): MOLM13, 100 nM
Method: Global Quantitative Proteomics Sample Preparation and Mass Spectrometry Acquisition Global Quantitative Proteomics was performed according to the previously reported method.7 Briefly, 1.0×10^6 MOLM13 cells were seeded in 12-well plates and small molecules of interest were added, and cells were incubated at 37 °C, 5% CO2 for 4 hours. Cells were collected […]
15 sec in total, 11% amplitude) in lysis buffer (5% SDS in 50 mM triethylammonium bicarbonate (TEAB), pH 7.55), and cleared by centrifugation (21,000 × g, 4 °C, 10 min). After protein quantification by BCA protein assay, the lysates were diluted to 1.5 mg/mL with the lysis buffer. The diluted lysates (60 μL) were reduced by addition of dithiothreitol (20 mM) at 24 °C for 30 min then alkylated by addition of iodoacetamide (40 mM) and incubation in the dark at 24 °C for 30 min.

His6-CRBN/DDB1 = His6-CRBN/DDB1 (Homo sapiens, UniProt Q96SW2); assay: TR-FRET ligand displacement assay (Thal-FITC tracer) with His6-CRBN/DDB1
[3] = target: T3, His6-CRBN/DDB1 and GST-BRD4(BD2) (Homo sapiens, UniProt O60885+Q96SW2); assay: AlphaScreen ternary complex formation, His6-CRBN/DDB1 and GST-BRD4(BD2); format: binding
T3 construct: His6-CRBN/DDB1 complex and GST-BRD4 BD2 domain; purchased Epicypher (GST-BRD4(BD2)); Bristol Myers Squibb gift (His6-CRBN/DDB1) 15-0013
Method: AlphaScreen was performed according to the previously reported method.7 Briefly, for AlphaScreen of His6-CRBN/DDB1, GST-IKZF1 and (S)-, (R)- or rac-lenalidomide-d3, a solution of 100 nM His6-CRBN/DDB1 and 200 nM GST-IKZF1 in 1x AlphaScreen buffer (5 µL) and a solution of the indicated compound in 1x AlphaScreen buffer (5 µL) were added to a each well of a 384-well Optiplate and incubated at 24 °C for 1 h. To each well, a solution of 5 µL of 60 µg/mL AlphaScreen Glutathione Donor beads, 60 µg/mL AlphaLISA Nickel Chelate Donor beads in 1× AlphaScreen buffer was added to each well and incubated at 24 °C for 1 h in the dark and the plate was analyzed. For AlphaScreen of His6-CRBN/DDB1, GST-BRD4(BD2) and bivalent degraders, a solution of 750 nM His-CRBN/DDB1 and 375 nM GST-BRD4(BD2) in 1x AlphaScreen buffer (5 µL) and a solution of the indicated compound in 1x AlphaScreen buffer (5 µL) were added to a each well of a 384-well Optiplate and incubated at 24 °C for 1 h. To each well, a solution of 5 µL of 60 µg/mL AlphaScreen Glutathione Donor beads, 60 µg/mL AlphaLISA Nickel Chelate Donor beads in 1× AlphaScreen buffer was added to each well and incubated at 24 °C for 1 h in the dark and the plate was analyzed. […]
heated at 95 °C for 5 min. 10 µL of the immunoprecipitated sample was load on a 12% Tris-glycine gel and probe-labeling was visualized by fluorescence signal. Separately, 10 µL of the immunoprecipitated sample and the “input” sample were load on a 12% Tris-glycine gel and analyzed by Western blotting. […]
Parental cell lines were stably infected with a unique 24-nucleotide DNA barcode via lentiviral transduction and blasticidin selection. […] Passing barcoded lines were then pooled (20-25 cell lines per pool) based on doubling time and frozen in assay-ready vials.
Test compounds were added to 384-well plates and run at 8 pt. dose with 3-fold dilutions, the highest concentration of 25 µM in triplicate. These assay ready plates were then seeded with […]

[4] = KD, competitive TR-FRET, His6-CRBN/DDB1
[5] = Protein CRBN, from IC50 with Correction Factor 1.43

T1 sequence (Q96SW2 318-426 limits assumed): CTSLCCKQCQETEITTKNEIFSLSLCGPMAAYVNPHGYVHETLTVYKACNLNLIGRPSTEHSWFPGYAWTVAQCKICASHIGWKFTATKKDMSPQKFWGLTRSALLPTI

- CRBN residue labeled by the probe [1]: Tyr355
Structure (SMILES): C#CCCC1(CC(=O)Nc2ccc3c(c2)C[15N]([C@@H]2CCC(=O)NC2=O)C3=O)N=N1 [(R)-i-pLen]

- degradation of BRD4(BD1)-GFP [2]: limited activity
- Kd (His6-CRBN/DDB1; [4]): 79 nM
Structure (SMILES): [2H]C1([2H])C[C@@]([2H])(N2Cc3cc(NC(=O)CCCCCCCCNC(=O)C[C@@H]4N=C(c5ccc(Cl)cc5)c5c(sc(C)c5C)-n5c(C)nnc54)ccc3C2=O)C(=O)NC1=O [JQ1-(R)-Len-d3]
- BRD4 protein levels by global quantitative proteomics (MOLM13 cells; MOLM13 cells, 100 nM): unperturbed
- FC [fold change abundances (R/DMSO)] (MOLM13 cells; protein ARID1A): 3.475
- logFC (R vs DMSO) (MOLM13 cells; protein ARID1A): 1.826
- FC [fold change abundances (R/DMSO)] (MOLM13 cells; protein CAB39): 0.9606
- logFC (R vs DMSO) (MOLM13 cells; protein CAB39): 0.2309
- FC [fold change abundances (R/DMSO)] (MOLM13 cells; protein FLII): 1.596
- logFC (R vs DMSO) (MOLM13 cells; protein FLII): 0.7992
- FC [fold change abundances (R/DMSO)] (MOLM13 cells; protein FUBP3): 1.064
- logFC (R vs DMSO) (MOLM13 cells; protein FUBP3): 0.3358
- FC [fold change abundances (R/DMSO)] (MOLM13 cells; protein TPD52): 1.273
- logFC (R vs DMSO) (MOLM13 cells; protein TPD52): 0.5322

- ternary complex formation between His6-CRBN/DDB1 and GST-BRD4(BD2) [3]: minimally promoted the ternary complex
- pIC50 (M) (His6-CRBN/DDB1; Protein CRBN, Thalidomide-FITC tracer 50 nM): 6.08 M
- IC50 (His6-CRBN/DDB1; Protein CRBN, Thalidomide-FITC tracer 50 nM, protein […]): 840 nM
- Kd (His6-CRBN/DDB1; [5]): 589 nM
- pKD (M) (His6-CRBN/DDB1; [5]): 6.23 M
Structure (SMILES): Cc1sc2c(c1C)C(c1ccc(Cl)cc1)=N[C@@H](CC(=O)NCCCCCCCCC(=O)N[C@@H](Cc1ccccc1)C(=O)N[C@@H]1CCC(=O)NC1=O)c1nnc(C)n1-2 [JQ1-FepicQ]

- CRBN residue labeled by the probe [1]: His353
Structure (SMILES): C#CCCC1(CC(=O)Nc2ccc3c(c2)CN([C@H]2CCC(=O)[15NH]C2=O)C3=O)N=N1 [(S)-i-pLen]

- ternary complex formation between His6-CRBN/DDB1 and GST-BRD4(BD2) [3]: much less than JQ1-(S)-Len-d3
- Kd (His6-CRBN/DDB1; [4]): < 2 nM
Structure (SMILES): [2H]C1([2H])CC([2H])(N2Cc3cc(NC(=O)CCCCCCCCNC(=O)C[C@@H]4N=C(c5ccc(Cl)cc5)c5c(sc(C)c5C)-n5c(C)nnc54)ccc3C2=O)C(=O)NC1=O (mixture of isomers) [JQ1-rac-Len-d3]
- FC [fold change abundances (rac/DMSO)] (MOLM13 cells; protein AHCY): 0.9686
- logFC (rac vs DMSO) (MOLM13 cells; protein AHCY): 0.2393
- FC [fold change abundances (rac/DMSO)] (MOLM13 cells; protein GNB4): -1.362
- logFC (rac vs DMSO) (MOLM13 cells; protein GNB4): -0.6098
- FC [fold change abundances (rac/DMSO)] (MOLM13 cells; protein NUP88): -1.247
- logFC (rac vs DMSO) (MOLM13 cells; protein NUP88): -0.5083
- FC [fold change abundances (rac/DMSO)] (MOLM13 cells; protein SATB2): -1.143
- logFC (rac vs DMSO) (MOLM13 cells; protein SATB2): -0.4122
- FC [fold change abundances (rac/DMSO)] (MOLM13 cells; protein TUBB4B): 1.098
- logFC (rac vs DMSO) (MOLM13 cells; protein TUBB4B): 0.3694

Reference: publication PMC12117711, “The contribution of cyclic imide stereoisomers on cereblon-dependent activity†” (Chemical Science, 2025)
